Common to all, as to assay type: biochemical
The target in one test is human plasmin (Homo sapiens, UniProt P00747). The experiment in a line: Plasmin chromogenic assay, IC50. The settings on record: 30 min incubation. On the procedure: (§1) The ability of compounds of the present invention to act as a selective inhibitor of thrombin activity was assessed by determining the concentration of test-compound which inhibited the activity of this enzyme by 50%, (IC50), and comparing this value to that determined for all or some of the following related serine proteases: recombinant tissue plasminogen activator (rt-PA), plasmin, activated protein C, chymotrypsin, factor Xa and trypsin.
(§2) The buffer used for all assays was HBSA (10 mM HEPES, pH 7.5, 150 mM sodium chloride, 0.1% bovine serum albumin).
(§3) The assay for IC50 determinations was conducted by combining in appropriate wells of a Corning microtiter plate, 50 microliters of HBSA, 50 microliters of the test compound at a specified concentration (covering a broad concentration range) diluted in HBSA (or HBSA alone for V0 (uninhibited velocity) measurement), and 50 microliters of the enzyme diluted in HBSA. Following a 30 minute incubation at ambient temperature, 50 microliters of the substrate at the concentrations specified below were added to the wells, yielding a final total volume of 200 microliters. The initial velocity of chromogenic substrate hydrolysis was measured by the change in absorbance at 405 nm using a Thermo Max® Kinetic Microplate Reader over a 5 minute period in which less than 5% of the added substrate was utilized. The concentration of added inhibitor which caused a 50% decrease in the initial rate of hydrolysis was defined as the IC50 value.
Plasmin catalytic activity was determined using the chromogenic substrate, S-2366 [L-pyroglutamyl-L-prolyl-L-arginine-p-nitroaniline hydrochloride], which was obtained from DiaPharma group. The substrate was made up in deionized water followed by dilution in HBSA prior to the assay in which the final concentration was 300 micromolar (about 2.5-times Km). Purified human plasmin was obtained from Enzyme Research Laboratories, Inc. The enzyme was diluted into HBSA prior to assay in which the final concentration was 1.0 nM.

Test [1] addresses T1, bovine pancreatic trypsin (Bos taurus, UniProt P00760).
T1 construct: bovine pancreatic trypsin was obtained from Worthington Biochemical Corp; purchased Worthington Biochemical Corp. TRL3; host or cells: bovine pancreas
T1 sequence (P00760 24-246): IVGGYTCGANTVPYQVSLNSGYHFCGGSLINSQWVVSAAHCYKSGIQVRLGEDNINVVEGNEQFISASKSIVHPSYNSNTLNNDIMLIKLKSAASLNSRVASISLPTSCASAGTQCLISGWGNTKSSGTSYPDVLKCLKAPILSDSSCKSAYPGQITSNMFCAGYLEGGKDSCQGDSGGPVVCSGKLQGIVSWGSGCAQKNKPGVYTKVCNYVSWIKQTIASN
Description: Trypsin chromogenic assay, IC50. Conditions: 30 min incubation. On the procedure:
as §1, §2, §3
Trypsin catalytic activity was determined using the chromogenic substrate, S-2222 (benzoyl-L-isoleucine-L-glutamic acid-[gamma-methyl ester]-L-arginine-p-nitroanilide), which was obtained from DiaPharma Group. […] Purified (3×-crystallized; TRL3) bovine pancreatic trypsin was obtained from Worthington Biochemical Corp. The enzyme was reconstituted in deionized water and diluted into HBSA prior to assay in which the final concentration was 0.5 nM.

For a further test, the target named is human α-thrombin (Homo sapiens, UniProt P00734). Description: Thrombin (fIIa) chromogenic assay, IC50.
The next test has as its target T2, Factor Xa (Homo sapiens, UniProt P00742).
T2 construct: purchased Enzyme Research Laboratories, Inc. (South Bend, Ind.)
Description: Factor Xa chromogenic assay, IC50. The settings on record: 30 min incubation; read-out: fxa IC50 (30 min). The method, then: as §1, §2, §3
Factor Xa catalytic activity was determined using the chromogenic substrate S-2765 (N-benzyloxycarbonyl-D-arginine-L-glycine-L-arginine-p-n itroaniline ), obtained from DiaPharma Group (Franklin, Ohio). All substrates were reconstituted in deionized water prior to use. […] Purified human Factor X was obtained from Enzyme Research Laboratories, Inc. (South Bend, Ind.) and Factor Xa (FXa) was activated and prepared from it as described [Bock, P. E., Craig, P. A., Olson, S. T., and Singh, P. Arch, Biochem. Biophys, 273:375-388 (1989)]. The enzyme was diluted into HBSA prior to assay in which the final concentration was 0.25 nM.

Where [2] appears, read: 0 min incubation of enzyme with inhibitor, read-out: fIIa IC50 (0 min).
The mark [3] stands for this setting: 30 min incubation of enzyme with inhibitor, read-out: fIIa IC50 (30 min).

Data on 15 compounds can be found in patent US6506760B1, “Substituted hydrazinyl heteroaromatic inhibitors of thrombin” (Corvas International, Inc., priority 2000, dated 2003).

Where two headings read alike, the source gives them in different places. Some results are limits rather than exact numbers.

T2 sequence (P00742 235-488 limits assumed): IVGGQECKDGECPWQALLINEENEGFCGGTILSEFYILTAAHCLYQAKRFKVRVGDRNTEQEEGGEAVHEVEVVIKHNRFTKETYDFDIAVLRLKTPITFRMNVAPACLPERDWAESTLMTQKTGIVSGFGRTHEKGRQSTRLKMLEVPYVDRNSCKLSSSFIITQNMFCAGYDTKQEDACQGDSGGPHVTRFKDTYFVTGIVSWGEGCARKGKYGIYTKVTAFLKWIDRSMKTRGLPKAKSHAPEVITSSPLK
T2 sequence (P00742 41-179 partner limits assumed): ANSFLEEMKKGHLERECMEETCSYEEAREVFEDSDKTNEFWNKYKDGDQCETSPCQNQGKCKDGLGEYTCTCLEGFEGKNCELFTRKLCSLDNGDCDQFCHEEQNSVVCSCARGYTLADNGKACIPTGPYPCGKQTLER
human plasmin, sequence (P00747 581-810 limits assumed): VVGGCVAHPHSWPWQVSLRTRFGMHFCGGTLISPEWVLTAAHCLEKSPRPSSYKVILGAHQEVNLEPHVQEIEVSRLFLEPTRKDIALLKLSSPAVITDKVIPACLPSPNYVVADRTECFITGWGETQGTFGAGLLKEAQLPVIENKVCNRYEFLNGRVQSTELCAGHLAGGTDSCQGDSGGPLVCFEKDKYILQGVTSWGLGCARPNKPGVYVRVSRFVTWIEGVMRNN
human plasmin, sequence (P00747 97-580 partner limits assumed): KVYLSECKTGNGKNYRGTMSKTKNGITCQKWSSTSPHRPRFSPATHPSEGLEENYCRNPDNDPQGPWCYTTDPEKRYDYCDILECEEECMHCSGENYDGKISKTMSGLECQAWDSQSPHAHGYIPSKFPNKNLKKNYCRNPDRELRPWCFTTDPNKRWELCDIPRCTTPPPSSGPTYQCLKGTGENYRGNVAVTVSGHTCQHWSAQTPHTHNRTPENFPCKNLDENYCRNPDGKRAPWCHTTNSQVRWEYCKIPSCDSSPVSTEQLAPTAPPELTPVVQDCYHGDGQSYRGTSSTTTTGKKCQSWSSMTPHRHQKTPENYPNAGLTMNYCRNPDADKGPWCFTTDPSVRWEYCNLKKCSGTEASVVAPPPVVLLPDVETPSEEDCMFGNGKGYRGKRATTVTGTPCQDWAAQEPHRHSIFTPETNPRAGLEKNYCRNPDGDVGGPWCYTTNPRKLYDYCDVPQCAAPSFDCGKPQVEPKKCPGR

In the case of `Cc1nc(N)ccc1CNC(=O)Cn1c(C)cnc(NNC(=O)OCC(C)(C)C)c1=O` [Example 31, 1-[5-(2-Amino-6-methylpyridyl)methylcarboxamidomeyhyl-]6-methyl-3-(2-neopentyloxycarbonylhydrazino)pyrazinone, Hydrotrifluoroacetate], the IC50 against human plasmin was not below 100 µM; in test [1] it was 2.5 to 100 µM; at human α-thrombin (setting [2]) it was not above 0.1 µM; on human α-thrombin (setting [3]) it was not above 0.1 µM; at Factor Xa, not below 100 µM.
As to `C#CCOC(=O)N(CC)Nc1ncc(C)n(CC(=O)NCc2ccc(N)nc2C)c1=O` [Example 58, 1-[5-(2-Amino-6-methylpyridyl)methylcarboxamidomeyhyl-]3-[2-ethyl-2-(propargyloxycarbonyl)hydrazino]-6-methylpyrazinone, Hydrotrifluoroacetate], the IC50 is not below 100 µM against human plasmin; not below 100 µM in test [1]; not above 0.1 µM at human α-thrombin (setting [2]); not above 0.1 µM at human α-thrombin (setting [3]); not below 100 µM on Factor Xa.
As to `C#CCOC(=O)N(C)Nc1ncc(C)n(CC(=O)NCc2ccc(N)nc2C)c1=O` [Example 59, 1-[5-(2-Amino-6-methylpyridyl)methylcarboxamidomethyl]-6-methyl-3-[2-methyl-2-(propargyloxycarbonyl)hydrazino]pyrazinone, Hydrotrifluoroacetate], the half-maximal inhibitory concentration (IC50) against human plasmin is not below 100 µM; in test [1], 2.5 to 100 µM; on human α-thrombin (setting [2]), not above 0.1 µM; on human α-thrombin (setting [3]) it was not above 0.1 µM; on Factor Xa it was not below 100 µM.
Turning to `Cc1nc(N)ccc1CNC(=O)Cn1c(C)cnc(NNC(=O)Cc2ccccc2)c1=O` [Example 12, 1-[5-(2-Amino-6-methylpyridyl)methylcarboxamidomeyhyl-]6-methyl-3-(2-phenylacetylhydrazino)pyrazinone, Hydrotrifluoroacetate], the IC50 against human plasmin is 2.5 to 100 µM; in test [1], not below 100 µM; at human α-thrombin (setting [2]), not above 0.1 µM; on human α-thrombin (setting [3]), not above 0.1 µM; on Factor Xa, not below 100 µM.
As to `Cc1nc(N)ccc1CNC(=O)Cn1c(C)cnc(NNC(=O)OCc2ccccc2Cl)c1=O` [Example 32, 1-[5-(2-Amino-6-methylpyridyl)methylcarboxamidomethyl]-3-[2-(2-chlorobenzyloxycarbonyl)hydrazino]-6-methylpyrazinone, Hydrotrifluoroacetate], the IC50 was 2.5 to 100 µM against human plasmin; not below 100 µM in test [1]; not above 0.1 µM on human α-thrombin (setting [2]); not above 0.1 µM at human α-thrombin (setting [3]); not below 100 µM on Factor Xa.
Regarding “1-[5-(2-Amino-6-methylpyridyl)methylcarboxamidomethyl]-3-[2-(4-chlorobenzenesulfonyl)hydrazino]-6-methylpyrazinone, Hydrotrifluoroacetate [Example 55]”, the IC50 is not below 100 µM at human plasmin; not below 100 µM in test [1]; not above 0.1 µM at human α-thrombin (setting [2]); not above 0.1 µM on human α-thrombin (setting [3]); not below 100 µM on Factor Xa.
For the compound `Cc1nc(N)ccc1CNC(=O)Cn1c(C)cnc(NNC(=O)OCc2ccccc2Cl)c1=O` [Example 24, 1-[5-(2-Amino-6-methylpyridyl)methylcarboxamidomethyl]-3-[2-(2-chlorobenzyloxycarbonyl)hydrazino]-6-methylpyrazinone, Hydrotrifluoroacetate], the IC50 at human plasmin is not below 100 µM; in test [1], 2.5 to 100 µM; at human α-thrombin (setting [2]), not above 0.1 µM; on human α-thrombin (setting [3]), not above 0.1 µM; at Factor Xa, not below 100 µM.
On to `C=CCOC(=O)NNc1ncc(C)n(CC(=O)NCc2ccc(N)nc2C)c1=O` [Example 25, 3-(2-Allyloxycarbonylhydrazino)-1-[5-(2-amino-6-methylpyridyl)methylcarboxamidomethyl]-6-methylpyrazinone, Hydrotrifluoroacetate], for which the IC50 on human plasmin was not below 100 µM; in test [1] it was not below 100 µM; at human α-thrombin (setting [2]) it was not above 0.1 µM; on human α-thrombin (setting [3]) it was not above 0.1 µM; at Factor Xa it was not below 100 µM.
On to `COc1ccccc1CNC(=O)NNc1ncc(C)n(CC(=O)NCc2ccc(N)nc2C)c1=O` [Example 48, 1-[5-(2-Amino-6-methylpyridyl)methylcarboxamidomethyl]-3-[2-(2-methoxybenzylcarbamyl)hydrazino]-6-methylpyrazinone, Hydrotrifluoroacetate], for which the IC50 against human plasmin was not below 100 µM; in test [1], not below 100 µM; on human α-thrombin (setting [2]) it was not above 0.1 µM; on human α-thrombin (setting [3]), not above 0.1 µM; at Factor Xa, not below 100 µM.
`Cc1nc(N)ccc1CNC(=O)Cn1c(C)cnc(NNS(=O)(=O)c2ccccc2)c1=O` [Example 22, 1-[5-(2-Amino-6-methylpyridyl)methylcarboxamidomethyl]-6-methyl-3-(2-phenylsulfonylhydrazino)pyrazinone, Hydrotrifluoroacetate]: the IC50 at human plasmin is not below 100 µM; in test [1] it was 2.5 to 100 µM; on human α-thrombin (setting [2]), not above 0.1 µM; on human α-thrombin (setting [3]) it was not above 0.1 µM; on Factor Xa it was not below 100 µM.
`C=CCCOC(=O)NNc1ncc(C)n(CC(=O)NCc2ccc(N)nc2C)c1=O` [Example 28, 1-[5-(2-Amino-6-methylpyridyl)methylcarboxamidomethyl]-3-[2-(3-butenyloxycarbonyl)hydrazino]-6-methylpyrazinone, Hydrotrifluoroacetate]: the IC50 was not below 100 µM on human plasmin; not below 100 µM in test [1]; not above 0.1 µM on human α-thrombin (setting [2]); not above 0.1 µM on human α-thrombin (setting [3]); 2.5 to 100 µM on Factor Xa.
On to `C#CCOC(=O)NNc1ncc(C)n(CC(=O)NCc2ccc(N)nc2C)c1=O` [Example 30, 1-[5-(2-Amino-6-methylpyridyl)methylcarboxamidomethyl]-6-methyl-3-(2-propargyloxycarbonylhydrazino)pyrazinone, Hydrotrifluoroacetate], for which the concentration for half-maximal inhibition (IC50) on human plasmin was not below 100 µM; in test [1], not below 100 µM; at human α-thrombin (setting [2]) it was not above 0.1 µM; at human α-thrombin (setting [3]) it was not above 0.1 µM; on Factor Xa it was not below 100 µM.
As for `Cc1nc(N)ccc1CNC(=O)Cn1c(C)cnc(NNC(=O)NCCC(C)(C)C)c1=O` [Example 50, 1-[5-(2-Amino-6-methylpyridyl)methylcarboxamidomethyl]-6-methyl-3-[2-(3,3-dimethylbutylcarbamyl)hydrazino]pyrazinone, Hydrotrifluoroacetate], the IC50 on human plasmin was not below 100 µM; in test [1], 2.5 to 100 µM; at human α-thrombin (setting [2]), not above 0.1 µM; at human α-thrombin (setting [3]) it was not above 0.1 µM; at Factor Xa it was 2.5 to 100 µM.
Take `Cc1nc(N)ccc1CNC(=O)Cn1c(C)cnc(NNS(=O)(=O)c2ccccc2C(F)(F)F)c1=O` [Example 45, 1-[5-(2-Amino-6-methylpyridyl)methylcarboxamidomethyl]-6-methyl-3-[2-(2-trifluoromethylbenzenesulfonyl)hydrazino]pyrazinone, Hydrotrifluoroacetate]: the IC50 against human plasmin is not below 100 µM; in test [1] it was not below 100 µM; on human α-thrombin (setting [2]) it was not above 0.1 µM; on human α-thrombin (setting [3]), not above 0.1 µM; at Factor Xa, 2.5 to 100 µM.
In the case of `Cc1nc(N)ccc1CNC(=O)Cn1c(C)cnc(NNC(=O)NCc2ccc3c(c2)OCO3)c1=O` [Example 49, 1-[5-(2-Amino-6-methylpyridyl)methylcarboxamidomethyl]-6-methyl-3-(2-piperonylcarbamylhydrazino)pyrazinone, Hydrotrifluoroacetate], the IC50 was not below 100 µM against human plasmin; not below 100 µM in test [1]; not above 0.1 µM at human α-thrombin (setting [2]); not above 0.1 µM at human α-thrombin (setting [3]); not below 100 µM on Factor Xa.

For orientation: IC50 means the concentration that inhibits the measured activity by half.
